Data on seven molecules can be found in patent US20240216332A1, “METHOD AND PHARMACEUTICAL COMPOSITION FOR TREATING MYOPIA” (GRAND PHARMA (CHINA) CO., LTD., priority 2021, published 2024).

Series [1] has as its system form deprivation myopia guinea pigs. Nature of the series: Lysine alone and bendazac alone in form deprivation myopia model, Example 8. The series is classed as in vivo, guinea pig. The following applies: FD; for myopia inhibition rate compared with DMSO vehicle control group: bendazac 3.3 mg/ml (11.669 mM) subconjunctival injection 100 μl once daily; for progress of myopia (diopter becoming negative, vitreous chamber depth, axial length): subconjunctival injection 100 μl once daily for 2 weeks, equimolar (11.669 mM) preparations, FIG. 8; for ocular abnormalities / pupil, corneal curvature, anterior chamber depth and lens thickness: subconjunctival injection once daily for 2 weeks; for pupil, corneal curvature, anterior chamber depth and lens thickness: FIGS. 10 and 11.

Series [2] shares this test system. Put plainly: m-Hydroxy methylaniline in form deprivation myopia model, Example 10. The format is in vivo, guinea pig. As to conditions: FD; for effect of preventing or treating myopia: subconjunctival injection 100 μl once daily for 1 week, atropine 0.1%. As to the method: The efficacy was evaluated using the guinea pig in form deprivation myopia model described in this application. All subjects were measured for diopter and axial length. […] Diopter and axis length parameters were measured at the beginning and after the end of the efficacy experiment.

Series [3] has the same test system. Nature of the series: Sorbinil and Zopolrestat in form deprivation myopia model, Example 9. The following applies: FD, Sorbinil 100 μM, Zopolrestat 1 mM; for diopter or axial length parameter versus the vehicle group: each test time point (1-week, 2-week), FIG. 13; for corneal curvature, anterior chamber depth and lens thickness: FIG. 14.
For series [4], the system named is guinea pigs with lens induced myopia. Put plainly: Lens induced (LI, -4D lens) myopia model, peribulbar injection, Example 3. As to conditions: bendazac lysine 0.5 mg/day peribulbar injection. The format is in vivo, guinea pig.
Series [5] concerns form deprivation myopia (FDM) guinea pigs. Nature of the series: Dose-response of bendazac lysine (0.01%-0.5%) in form deprivation myopia model, Example 5. The source says:
To be more intuitive, percentage are converted to milligram units when plotting.

The test system is the same in series [6]. Put plainly: Choroidal thickness (OCT) in FDM model, Example 6. The series is classed as in vivo, guinea pig. As to the method: (§1) The lenses were purchased from Wenzhou Focusee Technology Co. Ltd. The specific parameters were: center degree 4D, base curve 16 mm, and diameter 11.8 mm. The lenses were fixed in front of the right eye (experimental eye) of the guinea pig and the left eye (fellow eye) was left untreated. […] The choroidal thickness of all eyes in the two myopia models was detected by Spectralis HRA+OCT (Heidelberg Engineering, Heidelberg, Germany) at 30-60 min after the last administration. […] The statistical method was an independent sample T-test.

The subject of series [7] is lens induced myopia (LIM) guinea pigs. Nature of the series: Choroidal thickness (OCT) in LIM model, Example 6. The format is in vivo, guinea pig. As to conditions: 0.5% bendazac lysine (BDL(S)) subconjunctival injection once daily for 1 week, 30-60 min after last administration. On the procedure:
as §1

Series [8] concerns form deprivation myopia guinea pigs. Nature of the series: Direct eye drop administration in form deprivation myopia model, Example 7. As to conditions: for inhibition rate on myopia: direct eye drop 25 μl twice per day, 0.5% bendazac lysine (self-made); for elongation of axial length compared with the normal saline group: eye drop twice per day for 2 weeks, statistical difference. The source says:
All efficacy experiments above were repeated at least twice.

The subject of series [9] is guinea pigs with form deprivation myopia. Nature of the series: Form deprivation (FD) myopia model, peribulbar injection, Example 3. The following applies: for induced myopia (diopter) / myopia inhibition rate compared with normal saline group: peribulbar injection once daily (bendazac lysine 0.5 mg/day; atropine 0.1%, 100 μL).
Where [10] appears, read: m-hydroxy methylaniline 5 mM, FIG. 15.
The mark [11] stands for this setting: LI (-4D lens), 1-week of administration.
[12] abbreviates: FD, 0.5% bendazac lysine, 0.1% atropine.

As to `O=C(O)COc1nn(Cc2ccccc2)c2ccccc12` [bendazac, α-[(1-benzyl-1H-indazol-3-yl)oxy] acetic acid], the “myopia inhibition rate compared with DMSO vehicle control group” value in [1] (1-week) is on record as 33.4%; in series [1] (2-week), 30.1%. Further, the “mean difference in the choroidal thickness between the experimental eyes and the fellow eyes” value in series [1] (2-week after administration of bendazac alone, FIG. 12) is listed as −8.47 μm. The “elongation of axial length and increase of vitreous chamber depth compared with the DMSO vehicle group” value in series [1] (bendazac alone, statistical difference, FIG. 9) is “significantly inhibited elongation of axial length and reduced the increase of vitreous chamber depth”.
m-hydroxy methylaniline: the “elongation of axial length and increase of vitreous chamber depth” value in [2] (1 week, m-hydroxy methylaniline 5 mM) is “no inhibitory effect on elongation of axial length and no slowing effect on the increase of vitreous chamber depth”. The “effect of preventing or treating myopia” value in [2] (setting [10]) is “no effect of preventing or treating myopia”.
As for `O=C1NC(=O)[C@@]2(CCOc3ccc(F)cc32)N1` [Sorbinil], in series [3], the “diopter or axial length parameter versus the vehicle group” value is listed as “no significant difference”; the “corneal curvature, anterior chamber depth and lens thickness” value was “no effect”. The “therapeutic effect on myopia” value in series [3] (subconjunctival injection 100 μl once daily for 2 weeks) is listed as “no therapeutic effect on myopia”.
In the case of `O=C(O)COc1nn(Cc2ccccc2)c2ccccc12` [bendazac lysine, L-lysine (1-benzyl-1H-indazol-3-yloxy) acetate], in series [4] (setting [11]), the “induced myopia (diopter)” value is −3.49±1.15 D and the “myopia inhibition rate compared to the normal saline group” value was determined as 21.0%. In [4] (LI, 1 week), the “elongation of the vitreous chamber depth and the axial length” value was “inhibited”. Also, the “effect in terms of the parameter diopter” value in series [5] (FDM, 0.01% bendazac lysine, 2-week, no statistical difference) is recorded as “slightly stronger than the negative control group”. In addition, the “progress of myopia, dose-response” value in [5] (FDM, 0.01%, 0.05%, 0.1%, 0.5% in normal saline, subconjunctival injection 100 μl once daily for 2 weeks) is “dose-dependently retarded the progress of myopia”. In addition, the “therapeutic effect on myopia (progress of diopter becoming negative)” value in series [5] (FDM, 0.05% and 0.1% bendazac lysine preparations) is recorded as “significant therapeutic effect on myopia”. Also, in series [5] (FDM, 0.05%, 0.1% and 0.5% bendazac lysine, FIG. 3), the “increase in vitreous chamber depth (VCD) and elongation of axial length (AL)” value is “inhibit the increase in vitreous chamber depth (VCD) and the elongation of axial length (AL)”. Further, in series [5] (FDM, 0.5% bendazac lysine, 1-week after administration, no statistical difference), the “therapeutic effect on myopia in terms of diopter, compared with 0.1% atropine” value is given as “better therapeutic effect on myopia than 0.1% atropine”. Also, in series [5] (guinea pig, in vivo), the “anterior chamber depth, lens thickness and pupil” value was “not affected”; the “ocular irritation and ocular abnormalities during administration” value was “No ocular irritation and any ocular abnormalities were observed”. For the same molecule, the “corneal curvature (RCC), anterior chamber depth (ACD), lens thickness (LT)” value in series [6] (FDM and LIM, 0.5% BDL(S)) is “unaffected”. Moreover, the “mean difference in choroidal thickness between the experimental eye and the fellow eye” value in [6] (FDM, 0.5% bendazac lysine eye drops (BDL(S)) subconjunctival injection 100 μl once daily for 2 weeks, 30-60 min after last administration) is given as −9.20 μm. Further, in series [7], the “mean difference in choroidal thickness between the experimental and the fellow eyes” value is listed as −6.31 μm. Moreover, in series [8] (FD, 1-week, 0.1% atropine), the “inhibition rate on myopia” value turned out to be 35.5%. In addition, the “inhibition rate on myopia” value in series [8] (FD, 2-week, 0.1% atropine) was determined as 33.9%. The “elongation of axial length compared with the normal saline group” value in [8] (setting [12]) was “significantly inhibit elongation of axial length”. Also, in series [8] (guinea pig, in vivo), the “corneal curvature, anterior chamber and lens” value was “not affected”; the “ocular adverse reactions during the administration” value is listed as “no obvious ocular abnormalities”. In addition, in series [1], the “progress of myopia (diopter becoming negative, vitreous chamber depth, axial length)” value was “effectively inhibited the progress of diopter becoming negative”; the ocular abnormalities result is recorded as “no obvious ocular abnormalities”; the “pupil, corneal curvature, anterior chamber depth and lens thickness” value was “not affected”. Moreover, the “corneal curvature (RCC), anterior chamber depth (ACD), lens thickness (LT)” value in series [9] (FD and LI groups, 0.5 mg/day peribulbar injection, FIG. 2) is recorded as “not affected”. In series [9] (FD, 1-week of administration), the “induced myopia (diopter)” value is −2.15±1.09 D and the “myopia inhibition rate compared with normal saline group” value is 42.6%. In addition, in series [9] (FD, 2-week of administration), the “induced myopia (diopter)” value is reported as −3.46 D and the “myopia inhibition rate compared with normal saline group” value came to 43.9%. Also, in series [9] (FD, bendazac lysine 0.5 mg/day peribulbar injection, FIG. 1), the “increase in vitreous chamber depth and axial length” value is “inhibited”.
On to `CN1[C@@H]2CC[C@H]1C[C@@H](OC(=O)C(CO)c1ccccc1)C2` (some centres unmarked) [atropine], for which the “therapeutic effect (diopter or axial length parameter)” value in series [8] (FD, 0.01% atropine eye drops, same administration conditions) was “No therapeutic effect was observed”. Further, the “inhibition rate on myopia” value stood at 28.1% in series [8] (FD, 1-week, 0.1% atropine) and 36.9% in series [8] (FD, 2-week, 0.1% atropine). Moreover, the “elongation of axial length compared with the normal saline group” value in [8] (setting [12]) is “significantly inhibit elongation of axial length”. Also, the “ocular adverse reactions during the administration” value in series [8] (FD, eye drop twice per day, 0.5% bendazac lysine, 0.1% atropine) is “pupil dilation adverse reactions”. The “corneal curvature, anterior chamber and lens” value in [8] (FD, eye drop twice per day, 0.5% bendazac lysine, 0.1% atropine, FIG. 7) is recorded as “not affected”. Further, the “anterior chamber depth and lens thickness” value in series [2] (0.1% atropine, FIG. 15) is “unaffected”. Moreover, in series [2] (0.1% atropine, all animals tested in this group), the pupil result is listed as “pupil dilation”. The “effect of preventing or treating myopia” value in [2] (setting [10]) was “normal effect for treating myopia”.
As to `NCCCC[C@H](N)C(=O)O` [lysine], in series [1], the “progress of myopia (diopter becoming negative, vitreous chamber depth, axial length)” value is given as “no inhibitory effect on the progress of myopia”; the ocular abnormalities result was “no obvious ocular abnormalities”; the “pupil, corneal curvature, anterior chamber depth and lens thickness” value is given as “not affected”.
As for `O=C(O)Cc1nn(Cc2nc3cc(C(F)(F)F)ccc3s2)c(=O)c2ccccc12` [Zopolrestat], in series [3], the “diopter or axial length parameter versus the vehicle group” value was “no significant difference”; the “corneal curvature, anterior chamber depth and lens thickness” value was “no effect”.
